pEC50, pIC50: −log10 of the molar value. “And” between values parts separate entries of the source, which are not always exact repeats. Identical values can stand only once.
Tests used:
[1] = Plasma pharmacokinetics of pomalidomide and circulating metabolites by radiochromatography (metabolite profiling); format: in vivo, human; parameters: AUC0–24 / AUC0−∞: concentration or dose not given beside the values; details: for Plasma (% AUC relative to TRA): AUC0–24 (unchanged drug or metabolite)/AUC0–24 (TRA) * 100 %; for Tmax / half-life: human, oral, 2 mg; for Tmax / half-life / AUC0–24 / AUC0−∞ / C max: plasma, radiochromatography; for Tmax: median and range; for half-life: male, read-out: t ½ (converted); for half-life / AUC0–24 / AUC0−∞ / C max: geometric mean (%CV); for AUC/AUCTRA: plasma exposure relative to total radioactivity
Method: Individual plasma samples collected from all subjects at 1, 2.5, 4, 6, 10, 12 and 24 h post-dose were analyzed for metabolite profiling. Samples were extracted with acetonitrile, the supernatant was removed, and the pellet was washed with 0.1 % formic acid in water and extracted again with acetonitrile. The combined supernatants were adjusted to 15 or 25 mL by adding acetonitrile then evaporated to dryness under a stream of nitrogen. The residues were re-suspended in 0.1 % formic acid in water, assayed for extraction recovery and analyzed for metabolite profiling. A control plasma sample spiked with [^14C]pomalidomide was extracted in a similar manner to determine the extraction efficiency and stability of [^14C]pomalidomide.
(§1) HPLC analysis for metabolite profiling (HPLC Method 1) was performed using a Waters 2695 Alliance Separation Module (Waters Corp., Milford, MA) with the autosampler set to 4 °C. [^14C]Pomalidomide and metabolites were separated using an ACE C18 column (150 × 4.6 mm, 3 μm; Advanced Chromatography Technologies, Aberdeen, Scotland) equipped with an ACE C18 guard column (10 × 3 mm, 3 μm). The mobile phases used were 25 mM ammonium acetate in water: pH 5.5 with formic acid (mobile phase A) and methanol (mobile phase B). The column temperature was 30 °C, and the flow rate was 0.7 mL/min. The linear gradient was delivered as follows: 0–2 min 100 % A; 2–38 min to 64 % A; 38–44 min to 0 % A; 44–48 min hold at 0 % A; return to initial conditions over 2 min.
(§2) Radioactivity profiles for plasma and excreta were determined by collecting the column eluate into 96-well Deepwell LumaPlates™ at a rate of 0.25 min/fraction. The plates were dried and the radioactivity in each well determined using a PerkinElmer TopCount® NXT™ Microplate Scintillation Counter. HPLC radiochromatograms were reconstructed using LC-ARC data handling software.
For pomalidomide and metabolite concentrations in plasma based on metabolite profiling data, pharmacokinetic data were generated by non-compartmental analysis of plasma versus time profiles using WinNonlin (version 4.1, Enterprise Edition).

[2] = Metabolite profiling of urine and feces (% of dose excreted); format: in vivo, human; details: radiochromatography; for % of dose excreted, Urine: pooled urine 0–72 h
Method: For each subject, urine samples were pooled using an equal percentage by volume of the 0–6, 6–12, 12–24, 24–48 and 48–72 h samples. Pools of the 0–6, 6–12, 12–24, 24–48 and 48-72 h collections were also prepared across subjects and analyzed for metabolite profiling. Samples were mixed and centrifuged prior to the supernatants being transferred to fresh tubes for metabolite profiling analysis.
For each subject, fecal homogenates for metabolite profiling were pooled using an equal percentage by weight of the 0–24, 24–48, 48–72 and 72–96 h samples. Pools of the 0–24, 24-48, 48–72 and 72–96 h collections were also prepared across subjects and analyzed for metabolite profiling. An aliquot of each pool was extracted with acetonitrile; samples were mixed and centrifuged. The supernatant was removed and the pellets re-suspended with 0.1 % formic acid and extracted with acetonitrile. The combined supernatants were evaporated to dryness under a stream of nitrogen and the residue re-suspended in methanol:0.1 % formic acid in water (1:1). Samples were assayed for extraction recovery prior to metabolite profiling. A control fecal homogenate spiked with [^14C]pomalidomide was extracted in a similar manner to determine the extraction efficiency and stability of [^14C]pomalidomide.
as §1, §2

[3] = test system: recombinant human CYP (rCYP) enzymes; experiment: Incubations of [14C]pomalidomide with 10 recombinant human CYP enzymes, radiochromatography / LC–MS/MS; format: in vitro ADME
Method: The CYP enzymes responsible for the formation of the hydroxy pomalidomide metabolites were investigated using 10 recombinant human CYP (rCYP) enzymes (CYP1A2, CYP2A6, CYP2B6, CYP2C8, CYP2C9, CYP2C19, CYP2D6, CYP2E1, CYP3A4 and CYP3A5) at 100 pmol/mL. Incubations were prepared using [^14C]pomalidomide (1 μM) in 0.1 M potassium phosphate buffer (pH 7.4) with 4 mM MgCl2, pre-incubated for 5 min at 37 °C. Reactions were initiated by the addition of 1 mM NADPH and continued for 30 or 60 min. Reactions were quenched with two volumes of ice-cold 0.1 % formic acid in acetonitrile containing [^13C5]pomalidomide as internal standard. The samples were mixed and centrifuged, and a subsample of the supernatant evaporated to dryness. The resulting pellet was reconstituted in 0.1 % formic acid in water and acetonitrile (4:1, v/v) and analyzed using HPLC with radiochromatography and/or LC–MS/MS. The rate of formation of the notable human metabolite M17 was calculated and scaled to human in vivo situation using relative abundance method.

H929 MM cell = experiment: Inhibition of MM cell proliferation ([3H]-thymidine incorporation, 3-day culture); format: cell-based; details: Homo sapiens, NCI-H929
Method: (§3) Metabolites and hydrolysis products of pomalidomide were tested for pharmacological activity in the following three assay systems: (1) inhibition of MM cell proliferation, (2) enhancement of primary human T cell IL-2 production and (3) inhibition of TNF-α production by lipopolysaccharide (LPS)-stimulated human peripheral blood mononuclear cells (PBMC). For all three assay types, compounds were dissolved in 100 % dimethyl sulfoxide (DMSO) and diluted into complete cell culture medium, consisting of Roswell Park Memorial Institute (RPMI)-1640 plus penicillin, streptomycin and L-glutamine (Mediatech, Manassas, VA). The MM cell proliferation cell culture medium contained 10 % fetal bovine serum, while the primary human cell cultures contained 10 % human AB serum (Invitrogen, Brown Deer, WI). The final DMSO concentration in the cell culture media was 0.25 %.
(§4) The human MM cell line OPM-2 was obtained from DSMZ (Braunschweig, Germany), and human MM cell lines U266 B1 and NCI-H929 were obtained from ATCC (Manassas, VA). Inhibition of MM cell proliferation was assessed by the [^3H]-thymidine incorporation assay in a 3-day culture in the presence of compounds in complete medium, as previously described. Primary human T cells were isolated from PBMC by negative selection using the RosetteSep T Cell Enrichment Cocktail (STEMCELL Technologies, Tukwila, WA) according to the manufacturer’s procedures. Costimulation of T cell IL-2 production was measured in a 2-day culture of primary human T cells isolated from healthy donors stimulated with anti-CD3 antibody in the presence of compounds, as previously described. Inhibition of TNF-α production by LPS-stimulated human PBMC was measured in a 1-day culture in the presence of compound, as previously described.

OPM-2 MM cell = experiment: as above; format: cell-based; details: Homo sapiens
Method: as §3, §4

U266 MM cell = experiment: as above; format: cell-based; details: Homo sapiens, U-266
Method: as §3, §4

T cell IL-2 production = experiment: Enhancement of primary human T cell IL-2 production (anti-CD3 stimulated, 2-day culture); format: cell-based; details: 48 h, anti-CD3 stimulated primary human T cells
Method: as §3, §4

PBMC TNF-α production = experiment: Inhibition of TNF-α production by LPS-stimulated human PBMC (1-day culture); format: cell-based; details: 24 h
Method: as §3, §4

Row | % of dose excreted, Feces ([2]; pooled feces 0–96 h) [%] | level of metabolite detected by radiochromatography in rCYP incubations ([3]; all rCYP incubations of [14C]pomalidomide 1 μM) | level of metabolite detected by radiochromatography in the absence of enzyme ([3]; incubations of [14C]pomalidomide without enzyme) [%] | SMILES | Plasma (% AUC relative to TRA) [1] [%] | Tmax [1] [h] | half-life [1] [h] | AUC/AUCTRA [1] [%] | AUC0–24 [1] | AUC0−∞ [1] | C max [1] | % of dose excreted, Urine [2] | pIC50 (H929 MM cell) | pIC50 (OPM-2 MM cell) | pIC50 (U266 MM cell) | pEC50 (T cell IL-2 production) | pIC50 (PBMC TNF-α production) | formation of metabolite in rCYP incubations (LC–MS/MS) ([3]; any of the samples analyzed)
1 | 0.3 | 2.5–5.9% | 5.5 | NC(=O)CCC(C(=O)O)N1C(=O)c2cccc(N)c2C1=O (stereo not drawn) [Metabolite M11] | 6.3 | 2.5 | 10 | 6.34 | 12.3 (43.6) ngEq*h/mL | 15.9 (59.7) ngEq*h/mL | 0.965 (33.3) ngEq/mL | 23% and 23.3% | < 6.00 | < 6.00 | < 6.00 | < 5.00 | < 5.00 | –
2 | – | – | – | Nc1ccc(O)c2c1C(=O)N(C1CCC(=O)NC1=O)C2=O (stereo not drawn) [Metabolite M16, 7-hydroxy pomalidomide] | 6.1 | 1 | 14.2 | 6.13 | 11.9 (16.8) ngEq*h/mL | 17.6 (29.9) ngEq*h/mL | 0.907 (27.4) ngEq/mL | 7.0% | < 6.00 | < 6.00 | < 6.00 | < 5.00 | < 5.00 | not observed

Reference: paper PMC3556473, “Absorption, metabolism and excretion of [^14C]pomalidomide in humans following oral administration” (Cancer Chemotherapy and Pharmacology, 2012)
